The numbers were not newly measured in patent US20110097427A1, “Molecular Targets and Dietary Modulators of Exercise-Induced Muscle Damage” (priority 2009, published 2011), which cites them from elsewhere.

The conditions of the data set: Risérus et al., 2008, Diabetes 57: 332-339.

Turning to `Cc1cc(SCc2sc(-c3ccc(C(F)(F)F)cc3)nc2C)ccc1OCC(=O)O` [GW501516], the urinary isoprostanes entry was “reduced”.
